Reference: US9668477B2, “Active compound combinations” (BAYER CROPSCIENCE AG, priority 2012, dated 2017)
Read-outs that look alike come from different tables or passages of the source.

Experiments:
Format in all cases: in vivo
[1] = test system: Alternaria solani; experiment: Alternaria test (tomatoes)/preventive; conditions: 3 days after inoculation
Method: (§1) Solvent: 24.5 parts by weight of acetone • 24.5 parts by weight of dimethylacetamide
(§2) Emulsifier: 1 part by weight of alkylaryl polyglycol ether
(§3) To produce a suitable preparation of active compound, 1 part by weight of active compound is mixed with the stated amounts of solvent and emulsifier, and the concentrate is diluted with water to the desired concentration.
(§4) To test for preventive activity, young plants are sprayed with the preparation of active compound at the stated rate of application. After the spray coating has dried on, the plants are inoculated with an aqueous spore suspension of Alternaria solani. The plants are then placed in an incubation cabinet at approximately 20° C. and a relative atmospheric humidity of 100%.
The test is evaluated 3 days after the inoculation. 0% means an efficacy which corresponds to that of the untreated control while an efficacy of 100% means that no disease is observed.

[2] = test system: Blumeria graminis f.sp. hordei; experiment: Blumeria test (barley)/preventive; conditions: Table B1; 160 ppm a.i.; 7 days after inoculation
Method: (§5) Solvent: 49 parts by weight of N,N-dimethylacetamide Emulsifier: 1 part by weight of alkylaryl polyglycol ether To produce a suitable preparation of active compound, 1 part by weight of active compound or active compound combination is mixed with the stated amounts of solvent and emulsifier, and the concentrate is diluted with water to the desired concentration. To test for preventive activity, young plants are sprayed with the preparation of active compound or active compound combination at the stated rate of application. After the spray coating has been dried, the plants are dusted with spores of Blumeria graminis f.sp. hordei.

[3] = test system: Leptosphaeria nodorum; experiment: Leptosphaeria nodorum test (wheat)/preventive; conditions: Table C1; 160 ppm a.i.; 8 days after inoculation
Method: as §5, with “sprayed” for “dusted”, “a spore suspension” for “spores”, “Leptosphaeria nodorum.” for “Blumeria graminis f.sp. hordei.”

[4] = test system: Phakopsora pachyrhizi; experiment: Phakopsora test (soybeans)/preventive; conditions: Phakopsora pachyrhizi, 168 h, 7 days after inoculation, read-out: Efficacy in % found; for pest or weed control at 0.25 ppm: 0.25 ppm a.i.
[5] = test system: Puccinia triticina; experiment: Puccinia triticina-test (wheat)/preventive; conditions: Table E1, 8 days after inoculation
Method: (§6) Solvent: 49 parts by weight of N,N-dimethylacetamide
as §2
(§7) To produce a suitable preparation of active compound, 1 part by weight of active compound or active compound combination is mixed with the stated amounts of solvent and emulsifier, and the concentrate is diluted with water to the desired concentration.
(§8) To test for preventive activity, young plants are sprayed with the preparation of active compound or active compound combination at the stated rate of application.
After the spray coating has been dried, the plants are sprayed with a spore suspension of Puccinia triticina. The plants remain for 48 hours in an incubation cabinet at approximately 20° C. and a relative atmospheric humidity of approximately 100%.
(§9) The plants are placed in the greenhouse at a temperature of approximately 20° C. and a relative atmospheric humidity of approximately 80%.
(§10) The test is evaluated 8 days after the inoculation. 0% means an efficacy which corresponds to that of the untreated control, while an efficacy of 100% means that no disease is observed.

[6] = test system: Pyrenophora teres; experiment: Pyrenophora teres-test (barley)/preventive; conditions: Table F1; 160 ppm a.i.; 8 days after inoculation
Method: as §6, §2, §7, §8
After the spray coating has been dried, the plants are sprayed with a spore suspension of Pyrenophora teres. The plants remain for 48 hours in an incubation cabinet at approximately 20° C. and a relative atmospheric humidity of approximately 100%.
as §9, §10

[7] = test system: Sphaerotheca fuliginea; experiment: Sphaerotheca test (cucumbers)/preventive; conditions: Table G1, 7 days after inoculation
Method: (§11) Solvent: 24.5 parts by weight of acetone • 24.5 parts by weight of dimethylacetamide Emulsifier: 1 part by weight of alkylaryl polyglycol ether To produce a suitable preparation of active compound, 1 part by weight of active compound is mixed with the stated amounts of solvent and emulsifier, and the concentrate is diluted with water to the desired concentration. To test for preventive activity, young plants are sprayed with the preparation of active compound at the stated rate of application. After the spray coating has dried on, the plants are inoculated with an aqueous spore suspension of Sphaerotheca fuliginea.

[8] = test system: Uromyces appendiculatus; experiment: Uromyces test (beans)/preventive; conditions: 10 days after inoculation
Method: as §1, §2, §3
as §4, with “the causal agent of bean rust (Uromyces appendiculatus) and” for “Alternaria solani. The plants are”, “remain for 1 day” for “placed”
The plants are then placed in a greenhouse at approximately 21° C. and a relative atmospheric humidity of approximately 90%.
The test is evaluated 10 days after the inoculation. 0% means an efficacy which corresponds to that of the untreated control, while an efficacy of 100% means that no disease is observed.

[9] = test system: Venturia inaequalis; experiment: Venturia test (apples)/preventive; conditions: Table I1, 10 days after inoculation
Method: as §11, with “application.” for “application. After the spray coating has dried on, the plants are inoculated with an aqueous spore suspension of Sphaerotheca fuliginea.”

CCN(C)/C=N/c1cc(C)c(Oc2ccccc2)cc1C [(Id)]
Efficacy in % found ([1]; Table A1, 0.25 ppm a.i.): 0% | Efficacy in % found ([1]; Table A1, 0.5 ppm a.i.): 24% | Efficacy in % found ([1]; Table A1, 1 ppm a.i.): 18% | Efficacy in % found ([1]; Table A2, 0.5 ppm a.i.): 0% | Efficacy in % found ([1]; Table A2, 1 ppm a.i.): 11% | Efficacy in % found [2]: 60% | Efficacy in % found [3]: 50% | pest or weed control at 0.25 ppm ([4]; Table D1): 28% | pest or weed control at 0.5 ppm ([4]; Table D1, 0.5 ppm a.i.): 40% | pest or weed control at 1 ppm ([4]; Table D1, 1 ppm a.i.): 70% | pest or weed control at 0.25 ppm ([4]; Table D2): 45% | Efficacy in % found ([5]; 80 ppm a.i.): 70% | Efficacy in % found ([5]; 160 ppm a.i.): 80% | Efficacy in % found [6]: 13% | Efficacy in % found ([7]; 0.25 ppm a.i.): 0% | Efficacy in % found ([7]; 0.5 ppm a.i.): 0% | Efficacy in % found ([7]; 1.25 ppm a.i.): 10% | Efficacy in % found ([8]; Table H1, 0.1 ppm a.i.): 25% | Efficacy in % found ([8]; Table H1, 0.25 ppm a.i.): 60% | Efficacy in % found ([8]; Table H2, 0.2 ppm a.i.): 0% | Efficacy in % found ([8]; Table H3, 0.125 ppm a.i.): 0% | Efficacy in % found ([8]; Table H3, 0.25 ppm a.i.): 0% | Efficacy in % found ([9]; 0.25 ppm a.i.): 0% | Efficacy in % found ([9]; 0.5 ppm a.i.): 0% | Efficacy in % found ([9]; 1 ppm a.i.): 0%
